Test results published in patent publication US20050250677A1, “Glycopeptide antibiotic derivatives” (priority 2002, published 2005).
Like-named read-outs stand apart in the source and are kept apart here.

What was measured:
[1] = system: HEL cells
[2] = system: mutant HIV-1 strain Lys-103-Asn; experiment: Anti-HIV-1 activity against mutant HIV-1 strain Lys-103-Asn in CEM cultures; type: cell-based
[3] = system: VZV (wild-type strains); experiment: Anti-VZV assay (wild-type strains): virus-induced cytopathicity in HEL cell cultures; type: cell-based, varicella-zoster virus; conditions: for EC50: HEL cell cultures
[4] = system: human lymphocyte CEM; experiment: Cytostatic activity assay, CEM cells; type: cell-based; conditions: read-out: IC50 CEM (compound concentration required to inhibit tumor cell proliferation by 50%)
[5] = system: HIV-1 (MN); experiment: Inhibition of HIV-1 (MN)-induced cytopathicity in CEM/0 cells; type: cell-based
[6] = system: murine leukemia L1210; experiment: Cytostatic activity assay, L1210 cells; type: cell-based; conditions: read-out: IC50 L1210 (compound concentration required to inhibit tumor cell proliferation by 50%)
[7] = system: human lymphocyte Molt4/clone 8; experiment: Cytostatic activity assay, Molt4/clone 8 cells; type: cell-based; conditions: read-out: IC50 Molt4/C8 (compound concentration required to inhibit tumor cell proliferation by 50%)
[8] = system: HIV-1 (HE); experiment: Inhibition of HIV-1 (HE)-induced cytopathicity in CEM/0 cells; type: cell-based
[9] = system: HIV-1(HE); experiment: Inhibition of HIV-1 (HE)-induced cytopathicity in MOLT4/C8 cells; type: cell-based
[10] = system: HEL cells; conditions: read-out: CC50 (HEL)
[11] = system: HIV-1 (IIIB); experiment: Inhibition of HIV-1 (IIIB)-induced cytopathicity (giant cell formation) in CEM cells; type: cell-based
Protocol: (§1) A variety of glycopeptide antibiotic derivatives of vancomycin, eremomycin and teicoplanin including their aglycon derivatives were evaluated for their inhibitory activity against HIV-1 (IIIB) and HIV-2(ROD) in CEM cell cultures.

[12] = system: HIV-2(ROD); experiment: Inhibition of HIV-2 (ROD)-induced cytopathicity (giant cell formation) in CEM cells; type: cell-based; conditions: read-out: EC50 HIV-2 (concentration required to inhibit HIV-induced giant cell formation by 50%); HIV-2, CEM cell cultures
Protocol: as §1

[13] = system: HIV-2 (RF); conditions: read-out: EC50 CEM/0 HIV-2 (RF); CEM/0 cells
Protocol: (§2) Inhibition of HIV-1 (IIIB, HE, HN) and HIV-2(ROD, EHO, RF)-induced cytopathicity in CEM or C8166 or Molt4/C8 cells was measured in microtiter 96-well plates containing ˜3×10^5 CEM cells/ml, infected with 100 CCID50 of HIV per ml and containing appropriate dilutions of the test compounds. After 4 to 5 days of incubation at 37° C. in a CO2-controlled humidified atmosphere, CEM, C8166 or Molt4/C8 giant (syncytium) cell formation was examined microscopically.

[14] = system: HIV-2 (EHO); conditions: read-out: EC50 CEM/0 HIV-2 (EHO); CEM/0 cells
Protocol: as §2

[15] = system: HSV-2 (G); experiment: Anti-HSV-2 assay: virus-induced cytopathicity in HEL cell cultures
[16] = system: HSV-1 (KOS); experiment: Anti-HSV-1 assay: virus-induced cytopathicity in HEL cell cultures
[17] = system: SARS virus (strain Frankfurt-1); experiment: microbe, parasite or virus in culture; type: cell-based, human corona (SARS) virus; conditions: SARS virus in Vero cells; read-out: EC50 SARS virus
[18] = system: Vero cells; conditions: read-out: CC50 Vero
[19] = system: FCK cells; conditions: read-out: CC50 FCK; FCK cells
[20] = system: CMV; experiment: Anti-CMV assay: virus-induced cytopathicity in HEL cell cultures
[21] = system: FCV; experiment: Feline corona virus assay in Feline Crandel kidney cells (MTS); type: cell-based; conditions: FCV in FCK cells; read-out: EC50 FCV
Protocol: Feline Crandel kidney cells were seeded in 96-well microtiter plates at 24,000 cells/well. Then, 24 hrs later, an appropriate inoculum of FCV is added together with 5-fold dilutions of the test compounds. After 4 days, a MTS/PMS solution was added to each well. Following a 90 min incubation period at 37° C., the optical density of the wells was read at 498 nm in a microplate reader.

[22] = VZV strain OKA, read-out: EC50 VZV (OKA)
[23] = read-out: EC50 HIV-1 (concentration required to inhibit HIV-induced giant cell formation by 50%), HIV-1, CEM cell cultures
[24] = read-out: EC50 HSV-2 (G), HEL cell cultures
[25] = VZV strain YS, read-out: EC50 VZV (YS)
[26] = read-out: EC50 HSV-1 (KOS), HEL cell cultures
[27] = read-out: EC50 CMV AD-169, CMV strain AD-169, HEL cell cultures

| Compound | MTC (HEL) ([1]; anti-VZV table) | EC50 [3, 22] | CC50 ([10]; HEL cells, anti-VZV table) | EC50 [15, 24] | MTC (HEL) [1] | EC50 [3, 25] | EC50 [16, 26] | CC50 ([10]; HEL cell proliferation) | other results |
| --- | --- | --- | --- | --- | --- | --- | --- | --- | --- |
| CNC(CC(C)C)C(=O)NC1C(=O)NC(CC(N)=O)C(=O)NC2C(=O)NC3C(=O)NC(C(=O)NC(C(=O)O)c4cc(O)c(CN5CCN(Cc6ccc(-c7ccccc7)cc6)CC5)c(O)c4-c4cc3ccc4O)C(O)c3ccc(cc3)Oc3cc2cc(c3O)Oc2ccc(cc2Cl)C1O (stereo not drawn) [Compound 6] | ≧20-200 μM | 4.2 µM | > 50 µM | – | – | – | – | – | EC50 [2]: 11 ± 1.4 µM; activity against VZV [3]: pronounced activity; IC50 [4]: > 500 µM; EC50 [5]: 20 µM; IC50 [6]: 250 ± 39 µM; IC50 [7]: > 500 µM; EC50 [8]: 40 µM; EC50 [9]: 22 ± 2.9 µM; EC50 ([11]; CEM cultures, wild type in mutant panel, read-out: EC50 HIV-1 IIIB): 5.5 ± 0.7 µM; EC50 ([11]; CEM/0 cells, read-out: EC50 CEM/0 HIV-1 (IIIB)): 5.5 ± 0.7 µM; EC50 [11, 23]: 5.5 ± 0.7 µM; EC50 [12]: 12 ± 3.5 µM; EC50 [13]: 16 ± 5.7 µM; EC50 [14]: 50 µM |
| CCCCCCCCCC(=O)N1CCN(C(=O)C2NC(=O)C3NC(=O)C(NC(=O)C4NC(=O)C5NC(=O)C(Cc6ccc(c(Cl)c6)Oc6cc4cc(c6O)Oc4ccc(cc4Cl)C3O)NC(=O)C(N)c3ccc(O)c(c3)Oc3cc(O)cc5c3)c3ccc(O)c(c3)-c3c(O)cc(O)cc32)CC1 (stereo not drawn) [Compound 40] | ≧5-20 μM | 0.29 µM | > 50 µM | 9.6 µM | ≧5-20 μM | 0.21 µM | 9.6 µM | > 50 µM | IC50 [4]: 44 ± 0.42 µM; IC50 [6]: 38.7 ± 3.4 µM; IC50 [7]: 32.3 µM; EC50 [11, 23]: 1.5 ± 0.7 µM; EC50 [12]: 4.5 ± 2.1 µM |
| CC(C)CC(C(=O)NC1C(=O)NC(CC(N)=O)C(=O)NC2C(=O)NC3C(=O)NC(C(=O)NC(C(=O)O)c4cc(O)c(CN5CCN(Cc6ccc(-c7ccccc7)cc6)CC5)c(O)c4-c4cc3ccc4O)C(O)c3ccc(cc3)Oc3cc2cc(c3O)Oc2ccc(cc2Cl)C1O)N(C)C(=O)OC(C)(C)C (stereo not drawn) [Compound 98] | ≧20-200 μM | 2.3 µM | > 50 µM | – | ≧20-200 μM | 1.3 µM | – | > 50 µM | EC50 ([15]; read-out: EC50 HSV-2): 24 µM; activity against VZV [3]: pronounced activity; EC50 ([16]; read-out: EC50 HSV-1): 24 µM |
| CN(Cc1ccc(Cl)cc1)Cc1c(O)cc2c(c1O)-c1cc(ccc1O)C1NC(=O)C3NC(=O)C4NC(=O)C(Cc5ccc(c(Cl)c5)Oc5cc3cc(c5O)Oc3ccc(cc3Cl)C(O)C(NC1=O)C(=O)NC2C(=O)O)NC(=O)C(N)c1ccc(O)c(c1)Oc1cc(O)cc4c1 (stereo not drawn) [Compound 115] | ≧20-200 μM | > 5 µM | 50 µM | > 16 µM | ≧20-200 μM | 8.9 µM | 80 µM | 50 µM | – |
| CCCCOc1ccc(CN2CCN(C(=O)C3NC(=O)C4NC(=O)C(NC(=O)C5NC(=O)C6NC(=O)C(Cc7ccc(c(Cl)c7)Oc7cc5cc(c7O)Oc5ccc(cc5Cl)C4O)NC(=O)C(N)c4ccc(O)c(c4)Oc4cc(O)cc6c4)c4ccc(O)c(c4)-c4c(O)cc(O)cc43)CC2)cc1 (stereo not drawn) [Compound 125] | ≧2-20 μM | 0.32 µM | 44 µM | – | – | 0.25 µM | – | – | EC50 [17]: 10 µM; MTC (HEL) ([1]; anti-CMV table): ≧2-20 μM; CC50 [18]: > 100 µM; CC50 ([10]; HEL cells, anti-CMV table): 44 µM; CC50 [19]: 14 µM; anti-CMV activity [20]: anti-CMV activity; EC50 [20, 27]: 1.9 µM; EC50 ([20]; read-out: EC50 CMV Davis, CMV strain Davis, HEL cell cultures): 2.8 µM; EC50 [21]: 1.6 µM |
| CCCCOc1ccc(CNCCOc2c3cc4cc2Oc2ccc(cc2Cl)C(O)C2NC(=O)C(NC(=O)C4NC(=O)C4NC(=O)C(Cc5ccc(c(Cl)c5)O3)NC(=O)C(NCc3ccc(OCCCC)cc3)c3ccc(O)c(c3)Oc3cc(O)cc4c3)c3ccc(O)c(c3)-c3c(O)cc(O)cc3C(C(=O)O)NC2=O)cc1 (stereo not drawn) [Compound 132] | ≧5-20 μM | 0.97 µM | 40 µM | 9.6 µM | ≧5-20 μM | – | 9.6 µM | 40 µM | activity against HSV-2 [15]: activity; activity against HSV-1 [16]: activity |
| CC1(C)SC2C(NC(=O)C3NC(=O)C4NC(=O)C(NC(=O)C5NC(=O)C6NC(=O)C(Cc7ccc(c(Cl)c7)Oc7cc5cc(c7O)Oc5ccc(cc5Cl)C4O)NC(=O)C(N)c4ccc(O)c(c4)Oc4cc(O)cc6c4)c4ccc(O)c(c4)-c4c(O)cc(O)cc43)C(=O)N2C1C(=O)O (stereo not drawn) [Compound 145] | – | 3.9 µM | > 50 µM | 48 µM | – | 2.8 µM | 48 µM | > 50 µM | – |
| CCCCc1ccc(CNCc2c(O)cc3c(c2O)-c2cc(ccc2O)C2NC(=O)C4NC(=O)C5NC(=O)C(Cc6ccc(c(Cl)c6)Oc6cc4cc(c6O)Oc4ccc(cc4Cl)C(O)C(NC2=O)C(=O)NC3C(=O)O)NC(=O)C(NC(=O)OC(C)(C)C)c2ccc(O)c(c2)Oc2cc(O)cc5c2)cc1 (stereo not drawn) [Compound 146] | ≧5-50 μM | 2.5 µM | > 50 µM | 9.6 µM | ≧5-50 μM | – | 9.6 µM | > 50 µM | activity against HSV-2 [15]: activity; MTC (HEL) ([1]; anti-CMV table): ≧5-50 μM; activity against HSV-1 [16]: activity; CC50 ([10]; HEL cells, anti-CMV table): > 50 µM; EC50 [20, 27]: > 20 µM |
| Ristosaminylaglycon of ristomycin [Compound 88] | – | – | – | > 200 µM | – | – | 120 µM | > 50 µM | – |
